Assay results from patent US10960045B2, “Methods and compositions for the treatment of epidermolysis bullosa” (Constant Therapeutics LLC, priority 2015, dated 2021).
Entries after “also recorded” stand apart in the source; their conditions may differ.

How the values were obtained:
[1] = tested on: Recessive dystrophic epidermolysis bullosa (RDEB) mice; conditions: four weeks, results published by Nyström et al.; cited from earlier work
[2] = tested on: thrombospondin-1; test: Western blot of whole protein lysates of mouse forepaws: thrombospondin-1; type: in vivo; conditions: RDEB mouse forepaw lysates, four weeks treatment, relative to untreated RDEB mice
Source text: (§1) FIG. 7 depicts tenascin-C, thrombospondin-1, pSMAD2/3, galectin 3, and β-tubulin Western blots of whole protein lysates of mouse forepaws. Samples were obtained from age-matched wild-type mice, untreated recessive dystrophic epidermolysis bullosa (RDEB) mice, and RDEB mice treated with angiotensin (1-7) for four weeks.
(§2) FIG. 8 is a graph depicting the quantification of Western blot bands immunostained with antibodies directed against tenascin-C, thrombospondin-1, pSMAD2/3, and galectin 3. Samples consisted of whole protein lysates of mouse forepaws obtained from age-matched wild-type mice, untreated recessive dystrophic epidermolysis bullosa (RDEB) mice, and RDEB mice treated with angiotensin (1-7) for four weeks. Samples were normalized against β-tubulin. […] Each bar corresponds to a mean value, and error bars correspond to standard error of the mean (SEM).
(§3) Whole protein lysates from mouse forepaws were analyzed by Western blotting with antibodies directed against tenascin-C, thrombospondin-1, pSMAD2/3, galectin 3, and β-tubulin (FIG. 7). Thrombospondin 1 can activate transforming growth factor beta (TGFβ) signaling, which is associated with fibrosis. TGFβ signals through an intracellular SMAD pathway, and thus, phosphorylated-SMAD (e.g., pSMAD2/3) correlates with TGFβ-associated fibrosis. […] Western blotting results were quantified by densitometry and normalized against β-tubulin.

[3] = tested on: Recessive dystrophic epidermolysis bullosa (RDEB) mice; test: Toe length and loss/fusion of digits in RDEB mice treated four weeks; type: in vivo, mouse
Description: FIGS. 1A-1B. Recessive dystrophic epidermolysis bullosa (RDEB) mice were treated with angiotensin (1-7) peptide for four weeks. FIG. 1A consists of images of the right forepaw of a RDEB mouse before and after treatment with angiotensin (1-7). […] FIG. 1B is a graph of the average toe length of RDEB mice treated with angiotensin (1-7) peptide for four weeks (“Tarix”) or a vehicle control (“Vehicle”) as a percentage of average toe length before treatment.
FIG. 2 is a graph of average toe length of recessive dystrophic epidermolysis bullosa (RDEB) mice treated with either angiotensin (1-7) peptide, losartan, or a vehicle control for four weeks as a percentage of average toe length before treatment.
Recessive dystrophic epidermolysis bullosa (RDEB) is caused by a mutation in the gene encoding type VII collagen. RDEB mice display marked fibrosis, which leads to deleterious phenotypes including the fibrosis-driven loss and fusion of digits over time (see, e.g., Nyström, A. et al., EMBO MOLECULAR MEDICINE 7(9):1211-28 (2015)).
RDEB mice were treated with angiotensin (1-7) for four weeks (nine mice) or left untreated (three mice). Three wild type mice served as controls.

[4] = tested on: fibronectin; test: Fibronectin immunostaining of mouse forepaw cryosections; type: in vivo; conditions: RDEB mice, four weeks treatment, relative to untreated RDEB mice
Source text: (§4) FIG. 5 depicts images of α-SMA (top panel), fibronectin (middle panel), and CD11b (bottom panel) immunostained cryosections of mouse forepaws. The cryosections were obtained from age-matched wild-type mice, untreated recessive dystrophic epidermolysis bullosa (RDEB) mice, and RDEB mice treated with angiotensin (1-7) for four weeks. […] Cells were counterstained with 4′,6-diamidino-2-phenylindole (DAPI).
(§5) Cryosections of mouse forepaws were also immunostained for α-SMA (alpha smooth muscle actin), fibronectin, and CD11b. α-SMA is a myofibroblast cell marker, which correlates with fibrotic disease. Fibronectin correlates with dermal fibrosis. CD11b (integrin αM subunit) is a leukocyte marker, which is expressed by monocytes, granulocytes (e.g., neutrophils), macrophages, and natural killer cells.

[5] = tested on: CD11b-positive inflammatory leukocytes; test: CD11b immunostaining of mouse forepaw cryosections, CD11b-positive cells counted with ImageJ; type: in vivo; conditions: RDEB mice, four weeks treatment
Source text: as §4
FIG. 6 is a graph depicting the quantification of CD11b-positive cells per mm^2 in images of immunostained cryosections of mouse forepaws. The cryosections were obtained from age-matched wild-type mice, untreated recessive dystrophic epidermolysis bullosa (RDEB) mice, and RDEB mice treated with angiotensin (1-7) for four weeks. CD11b stains neutrophils and macrophages. […] Each bar corresponds to a mean value, and error bars correspond to standard error of the mean (SEM).
Cryosections of mouse forepaws were also immunostained for α-SMA (alpha smooth muscle actin), fibronectin, and CD11b. α-SMA is a myofibroblast cell marker, which correlates with fibrotic disease. Fibronectin correlates with dermal fibrosis. […]
The number of CD11b-positive cells per mm^2 was quantified using ImageJ software. […] Identical thresholds were applied to all images, the images were converted to binary images, and all particles >10 pixles^2 were automatically counted.

[6] = tested on: pSMAD2/3; test: Western blot of whole protein lysates of mouse forepaws: pSMAD2/3; type: in vivo; conditions: RDEB mouse forepaw lysates, four weeks treatment, relative to untreated RDEB mice
Source text: as §1, §2, §3

[7] = tested on: galectin 3; test: Western blot of whole protein lysates of mouse forepaws: galectin 3; type: in vivo; conditions: RDEB mouse forepaw lysates, four weeks treatment, relative to untreated RDEB mice
Source text: as §1, §2, §3

[8] = tested on: tenascin-C; test: Tenascin-C immunostaining of mouse forepaw cryosections; type: in vivo; conditions: RDEB mice, four weeks treatment, relative to untreated RDEB controls; P<0.001
Source text: FIG. 3 depicts images of tenascin-C immunostained cryosections of mouse forepaws. The cryosections were obtained from age-matched wild-type mice, untreated recessive dystrophic epidermolysis bullosa (RDEB) mice, and RDEB mice treated with angiotensin (1-7) for four weeks. Each top panel corresponds to cryosections of the walking pads of a mouse, and each bottom panel corresponds to sections of toes. Tenascin-C is present at low abundance in uninjured skin, and it increases in fibrotic skin. […] Tenascin-C staining was observed primarily just below the dermal-epidermal junction in angiotensin (1-7) treated mice, which corresponds to the initial site of injury in RDEB mice. Cells were counterstained with 4′,6-diamidino-2-phenylindole (DAPI), and the scale bar corresponds to 200 μm.
FIG. 4 is a graph depicting the quantification of the fluorescence intensity of cryosection images of mouse forepaws immunostained with an anti-tenascin-C antibody. […]
Immunostaining was performed on cryosections of mouse forepaws of wild-type mice, untreated RDEB mice, and RDEB mice treated with angiotensin (1-7) for four weeks. […] Tenascin-C immunostaining was visualized using fluorescence microscopy (FIG. 3). Immunostaining was quantified with ImageJ software on images obtained with identical microscope settings and exposure time. […]

[9] = tested on: tenascin-C; test: Western blot of whole protein lysates of mouse forepaws: tenascin-C; type: in vivo; conditions: RDEB mouse forepaw lysates, four weeks treatment, relative to untreated RDEB mice
Source text: as §1, §2, §3

[10] = tested on: α-SMA positive myofibroblasts; test: α-SMA immunostaining of mouse forepaw cryosections; type: in vivo; conditions: RDEB mice, four weeks treatment, relative to untreated RDEB mice
Source text: as §4, §5

[11] = tested on: Recessive dystrophic epidermolysis bullosa (RDEB) mice; test: Blistering of forepaws of RDEB mice; type: in vivo, mouse; conditions: four weeks treatment, wild type controls lacked blistering

| Molecule | average toe length as a percentage of average toe length before treatment (losartan) [1] | thrombospondin-1 abundance, Western blot normalized against β-tubulin [2] | average toe length as a percentage of average toe length before treatment ([3]; relative to vehicle-treated RDEB controls (results published by Nyström et al.)) | fibrosis-driven loss and fusion of digits ([3]; right forepaw, four weeks treatment) | dermal fibronectin immunostaining in forepaw [4] | CD11b-positive cells in forepaw dermis ([5]; relative to untreated RDEB mice) | number of CD11b-positive cells per mm^2 compared with wild type mice ([5]; versus age-matched wild type mice) | phosphorylated SMAD2/3 (pSMAD2/3) abundance, Western blot normalized against β-tubulin [6] | galectin-3 abundance, Western blot normalized against β-tubulin [7] | tenascin-C immunostaining (fluorescence intensity) in forepaw dermis [8] | tenascin-C abundance, Western blot normalized against β-tubulin [9] | α-SMA positive cells (myofibroblasts) in forepaw [10] | blistering of forepaws [11] |
| --- | --- | --- | --- | --- | --- | --- | --- | --- | --- | --- | --- | --- | --- |
| CCCCc1nc(Cl)c(CO)n1Cc1ccc(-c2ccccc2-c2nn[nH]n2)cc1 [losartan] | similar |  |  |  |  |  |  |  |  |  |  |  |  |
| Asp^1-Arg^2-Val^3-Tyr^4-Ile^5-His^6-Pro^7 [angiotensin (1-7)] |  | reduced abundance of the TGFβ activator thrombospondin-1 | significant reduction in the decrease in toe length; also recorded: protected against RDEB-associated decreases in toe length | reduced the expression of this deleterious phenotype; also recorded: protected against RDEB-associated decreases in toe length and fusion of digits | less fibronectin immunostaining; also recorded: reduced | fewer CD11b-positive cells; also recorded: reduced; also recorded: reduction in CD11b-positive cell density | about the same number of CD11b-positive cells per mm^2 as wild type mice | reduced abundance of phosphorylated SMAD2/3 | reduced galectin-3 | significant (P<0.001) reduction in tenascin-C staining; also recorded: significantly lowered the amount of tenascin-C staining; also recorded: significant reduction in tenascin-C immunostaining | reduced tenascin-C | fewer α-SMA positive cells; also recorded: reduced the number of α-SMA positive myofibroblasts | displayed blistering |
